Test results: patent US20260216157A1, “TETRAHYDROTHIOPHENE DERIVATIVE AND USE THEREOF IN MEDICINE” (Haisco Pharmaceutical Group Co., Ltd., priority 2023, published 2026)

What follows are compounds tested against T1, hNav1.8 (Homo sapiens, UniProt Q9Y5Y9) (assay: Nav1.8 manual patch clamp test). Details: CHO cells stably expressing human Nav1.8; whole-cell patch clamp, half-inactivated state; read-out: Inhibitory activity (IC50) against hNav1.8.
T1 construct: expressed in transfected cells; host or cells: CHO
T1 sequence (Q9Y5Y9 whole entry): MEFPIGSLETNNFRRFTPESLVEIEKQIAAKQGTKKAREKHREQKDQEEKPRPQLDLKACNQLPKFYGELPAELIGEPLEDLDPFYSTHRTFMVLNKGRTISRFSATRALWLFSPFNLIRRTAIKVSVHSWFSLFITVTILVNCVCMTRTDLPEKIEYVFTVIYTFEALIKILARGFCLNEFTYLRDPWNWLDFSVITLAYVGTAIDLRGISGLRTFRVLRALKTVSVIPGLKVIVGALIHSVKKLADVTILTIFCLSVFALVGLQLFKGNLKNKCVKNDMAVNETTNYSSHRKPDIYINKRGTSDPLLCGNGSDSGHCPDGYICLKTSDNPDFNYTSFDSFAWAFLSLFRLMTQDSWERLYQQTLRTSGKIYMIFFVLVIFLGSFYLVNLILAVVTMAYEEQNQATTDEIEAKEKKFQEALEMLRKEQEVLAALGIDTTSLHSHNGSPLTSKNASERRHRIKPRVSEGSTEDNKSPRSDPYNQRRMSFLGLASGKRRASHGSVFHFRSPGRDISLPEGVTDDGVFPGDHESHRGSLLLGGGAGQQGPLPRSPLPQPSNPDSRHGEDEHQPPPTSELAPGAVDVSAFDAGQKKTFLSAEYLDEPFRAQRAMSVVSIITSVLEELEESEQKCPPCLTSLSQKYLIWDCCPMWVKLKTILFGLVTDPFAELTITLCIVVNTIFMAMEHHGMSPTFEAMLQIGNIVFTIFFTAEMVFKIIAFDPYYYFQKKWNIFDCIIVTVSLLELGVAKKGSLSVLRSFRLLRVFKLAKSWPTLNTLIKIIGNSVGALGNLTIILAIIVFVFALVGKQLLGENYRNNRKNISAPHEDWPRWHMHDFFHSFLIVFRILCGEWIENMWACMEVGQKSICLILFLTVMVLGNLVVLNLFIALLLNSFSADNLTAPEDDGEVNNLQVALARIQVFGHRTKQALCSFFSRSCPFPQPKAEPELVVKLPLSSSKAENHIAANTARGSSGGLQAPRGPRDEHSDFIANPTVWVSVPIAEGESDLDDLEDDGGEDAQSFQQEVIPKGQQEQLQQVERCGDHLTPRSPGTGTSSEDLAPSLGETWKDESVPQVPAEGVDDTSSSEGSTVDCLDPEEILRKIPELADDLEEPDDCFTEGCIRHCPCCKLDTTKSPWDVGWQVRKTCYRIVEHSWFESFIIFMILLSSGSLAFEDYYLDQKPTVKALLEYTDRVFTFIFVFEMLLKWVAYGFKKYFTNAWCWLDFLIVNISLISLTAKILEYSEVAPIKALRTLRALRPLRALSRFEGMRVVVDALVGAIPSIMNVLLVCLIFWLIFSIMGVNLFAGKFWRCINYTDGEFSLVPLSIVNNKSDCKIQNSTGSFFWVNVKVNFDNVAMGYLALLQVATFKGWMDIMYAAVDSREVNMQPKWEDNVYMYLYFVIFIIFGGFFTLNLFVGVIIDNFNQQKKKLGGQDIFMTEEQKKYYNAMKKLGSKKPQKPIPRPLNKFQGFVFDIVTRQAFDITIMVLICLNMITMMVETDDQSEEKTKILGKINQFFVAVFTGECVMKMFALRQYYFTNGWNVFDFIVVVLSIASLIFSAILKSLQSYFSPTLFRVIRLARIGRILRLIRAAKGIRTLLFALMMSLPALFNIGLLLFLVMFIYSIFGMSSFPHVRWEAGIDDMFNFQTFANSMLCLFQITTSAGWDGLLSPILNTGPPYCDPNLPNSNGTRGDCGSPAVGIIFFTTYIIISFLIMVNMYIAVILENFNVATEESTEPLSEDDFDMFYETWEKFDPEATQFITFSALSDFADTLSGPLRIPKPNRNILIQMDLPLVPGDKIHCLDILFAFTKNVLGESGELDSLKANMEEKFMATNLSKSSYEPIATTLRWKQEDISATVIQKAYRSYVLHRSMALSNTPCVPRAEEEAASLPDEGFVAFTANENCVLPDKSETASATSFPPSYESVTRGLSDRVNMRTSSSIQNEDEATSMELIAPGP
Assay type: cell-based
Method: Nav1.8 Manual Patch Clamp Test
CHO cell lines stably expressing human Nav1.8 were cultured in a Ham's F-12 medium containing 10% fetal bovine serum, 10 μg/mL Blasticidin, 200 μg/mL Hygromycin B and 100 μg/mL Zeocin. The cells were cultured at 37° C. with a carbon dioxide concentration of 5%. The old medium was removed, and the cells were rinsed once with PBS. Then, 1 mL of 0.25%-Trypsin-EDTA solution was added, and the cells were incubated at 37° C. for approximately 1.5 min. Once the cells detached from the bottom of the dish, complete medium pre-warmed to 37° C. was added. The cell suspension was gently triturated with a pipette to dissociate the clumped cells. The cell suspension was transferred to a sterile centrifuge tube and centrifuged at 1000 rpm for 5 min to collect the cells. The cells were seeded into 6 cm cell culture dishes at a density of 2.5×10^5 cells per cell culture dish (final volume: 5 mL) for expansion or maintenance culture. To maintain the electrophysiological activity of the cells, the cell density should not exceed 80%. Before patch clamp testing, the cells were dissociated with 0.25%-Trypsin-EDTA. 6.5×10^3 cells were plated onto coverslips and cultured in 24-well plates (final volume: […]) for 18 hours before detection.
The compound was dissolved in dimethyl sulfoxide (DMSO) and prepared into a 30 mM DMSO stock solution. The stock solution was diluted with the extracellular fluid (140 mM NaCl, 3.5 mM KCl, 1 mM MgCl2·6H2O, 2 mM CaCl2·2H2O, 10 mM D-Glucose, 10 mM HEPES and 1.25 mM NaH2PO4·2H2O; adjusted to pH 7.4 with NaOH) to the test concentration, and the final DMSO concentration of all test samples was 0.1%.
(3) Electrophysiological Test
First, the recording electrodes were pulled from capillary glass tubes by using a microelectrode puller. Then, the electrodes were filled with the intracellular fluid (50 mM CsCl, 10 mM NaCl, 10 mM HEPES, 60 mM CsF and 20 mM EGTA; adjusted to pH 7.2 with CsOH) and mounted onto the microelectrode holder. Under an inverted microscope, the microelectrode manipulator was used to immerse the electrodes into the extracellular fluid, and the pipette resistance (Rpip) was recorded. The electrodes were slowly brought into contact with the cell surface, and negative pressure suction was applied to form a […]. At this point, fast capacitance compensation was performed, and negative pressure was continuously applied to break the cell membrane, forming a whole-cell recording mode. Finally, slow capacitance compensation was performed, and experimental parameters such as series resistance (Rs) were recorded. No electric leakage compensation was applied. When the Nav1.8 current in whole-cell recording was stable, drug administration was initiated, with each drug concentration for approximately 5 min (or until the current was stable). The coverslips spread with the cells were placed in a recording chamber under the inverted microscope. The blank control extracellular fluid and the test compound working solution were perfused through the recording chamber via the gravity-driven perfusion method, thereby acting on the cells, and a peristaltic pump was used to facilitate liquid exchange. The current recorded from cells in compound-free extracellular fluid was used as the control group. All electrophysiological experiments were conducted at room temperature. The inhibition rate of compounds on Nav1.8 was determined by calculating the relative percentage of peak currents generated before and after the cells were treated with the compounds.
The voltage stimulation protocol for whole-cell patch clamp recording of Nav1.8 sodium currents was described as follows. When the whole-cell sealing was formed, the cells were clamped at a voltage of −120 mV. First, the voltage was stepped from −110 mV to −30 mV in 10 mV increments and maintained for 5 s, followed by a depolarizing pulse to 0 mV to obtain a half-inactivation voltage (Vhalf). […]

SMILES | IC50
COc1c(C2C(C(=O)Nc3ccnc(C(N)=O)c3)SC(C)(C(F)(F)F)C2C)ccc(F)c1F (stereo not shown) | < 0.1 nM
COc1c([C@H]2[C@H](C(=O)Nc3ccc(F)c(S(C)(=N)=O)c3)S[C@@](C)(C(F)(F)F)[C@H]2C)ccc(F)c1F (stereo partly shown) | < 0.1 nM
COc1c(C2C(C(=O)Nc3ccnc(OCC(O)CO)c3)SC(C)(C(F)(F)F)C2C)ccc(F)c1F (mixture of isomers) [Mixture of compounds 33-1a and 33-1b] | < 1 nM
COc1c([C@H]2[C@H](C(=O)Nc3ccc[n+]([O-])c3)S[C@@](C)(C(F)(F)F)[C@H]2C)ccc(F)c1F (racemic) [Mixture of compounds 20-1a and 20-1b] | < 0.1 nM
COc1c(C2C(C(=O)Nc3ccnc(C(N)=O)c3)SC(C)(C(F)(F)F)C2C)ccc(F)c1F (single isomer, unassigned) [Compound 1-2P1] | < 0.1 nM
COc1c(C2C(C(=O)Nc3ccnc(C(N)=O)c3)SC(C)(C(F)(F)F)C2C)ccc(F)c1F (single isomer, unassigned) [Compound 1-2P2] | < 10 nM
COc1c(C2CC(C)(C(F)(F)F)SC2C(=O)Nc2cccc(C(N)=O)c2)ccc(F)c1F (single isomer, unassigned) [Compound 32-1P1] | < 1 nM
COc1c(C2CC(C)(C(F)(F)F)SC2C(=O)Nc2cccc(C(N)=O)c2)ccc(F)c1F (single isomer, unassigned) [Compound 32-1P2] | < 1 nM
COc1c([C@@H]2C[C@](C)(C(F)(F)F)S[C@H]2C(=O)Nc2ccc(F)c(C(N)=O)c2)ccc(F)c1F (single isomer, unassigned) [Compound 70-a] | < 0.1 nM
COc1c([C@H]2[C@H](C(=O)Nc3ccnc(C(N)=O)c3)S[C@@](C)(C(F)(F)F)[C@H]2C)ccc(F)c1F [Compound 1-2a] | < 0.1 nM
COc1c([C@H]2[C@H](C(=O)Nc3ccnc(S(N)(=O)=O)c3)S[C@@](C)(C(F)(F)F)[C@H]2C)ccc(F)c1F [Compound 5-3a] | < 0.1 nM
COc1c([C@H]2[C@H](C(=O)Nc3cccc(S(N)(=O)=O)c3)S[C@@](C)(C(F)(F)F)[C@H]2C)ccc(F)c1F [Compound 7-1a] | < 0.1 nM
COc1c([C@H]2[C@H](C(=O)Nc3ccc(F)c(S(N)(=O)=O)c3)S[C@@](C)(C(F)(F)F)[C@H]2C)ccc(F)c1F [Compound 8-1a] | < 0.1 nM
COc1c([C@H]2[C@H](C(=O)Nc3ccc(CO)nc3)S[C@@](C)(C(F)(F)F)[C@H]2C)ccc(F)c1F [Compound 18-2a] | < 1 nM
COc1c([C@H]2[C@H](C(=O)Nc3cnc(CO)nc3)S[C@@](C)(C(F)(F)F)[C@H]2C)ccc(F)c1F [Compound 19-2a] | < 1 nM
COc1c([C@H]2[C@H](C(=O)Nc3ccc[n+]([O-])c3)S[C@@](C)(C(F)(F)F)[C@H]2C)ccc(F)c1F [Compound 20-1a] | < 1 nM
COc1c([C@H]2[C@H](C(=O)Nc3cccc(S(C)(=O)=O)c3)S[C@@](C)(C(F)(F)F)[C@H]2C)ccc(F)c1F [Compound 22-1a] | < 0.1 nM
COc1c([C@H]2[C@H](C(=O)Nc3ccnc(S(C)(=O)=O)c3)S[C@@](C)(C(F)(F)F)[C@H]2C)ccc(F)c1F [Compound 25-1a] | < 0.1 nM
COc1c([C@H]2[C@H](C(=O)Nc3ccc(F)c(S(C)(=O)=O)c3)S[C@@](C)(C(F)(F)F)[C@H]2C)ccc(F)c1F [Compound 26-1a] | < 0.1 nM
COc1c([C@H]2[C@H](C(=O)Nc3cc[nH]c(=O)c3)S[C@@](C)(C(F)(F)F)[C@H]2C)ccc(F)c1F [Compound 36-2a] | < 0.1 nM
COc1c([C@H]2[C@H](C(=O)Nc3ccc(F)c(CO)c3)S[C@@](C)(C(F)(F)F)[C@H]2C)ccc(F)c1F [Compound 48-1a] | < 1 nM
COc1c([C@H]2[C@H](C(=O)Nc3ccnc(CO)c3)S[C@@](C)(C(F)(F)F)[C@H]2C)ccc(F)c1F [Compound 50] | < 1 nM

SMILES | IC50
COc1c([C@H]2[C@H](C(=O)Nc3ccc(F)c(C(=O)O)c3)S[C@@](C)(C(F)(F)F)[C@H]2C)ccc(F)c1F [Compound 55] | < 1 nM
COc1c([C@H]2[C@H](C(=O)Nc3cccc(P(C)(C)=O)c3)S[C@@](C)(C(F)(F)F)[C@H]2C)ccc(F)c1F [Compound 57] | < 1 nM
C[C@H]1[C@@H](c2ccc(F)c3c2CCC3)[C@H](C(=O)Nc2ccc(F)c(S(N)(=O)=O)c2)S[C@@]1(C)C(F)(F)F [Compound 59-b] | < 0.1 nM
C[C@H]1[C@@H](c2ccc(F)c3c2CCC3)[C@H](C(=O)Nc2ccc(F)c(C(N)=O)c2)S[C@@]1(C)C(F)(F)F [Compound 61-b] | < 0.1 nM
C[C@H]1[C@@H](c2ccc(F)c3c2CCC3)[C@H](C(=O)Nc2ccc(F)c(S(C)(=N)=O)c2)S[C@@]1(C)C(F)(F)F (stereo partly shown) [Compound 63-b] | < 0.1 nM
C[C@H]1[C@@H](c2ccc(F)c3c2CCC3)[C@H](C(=O)Nc2ccc(F)c(S(C)(=O)=O)c2)S[C@@]1(C)C(F)(F)F [Compound 65-b] | < 0.1 nM
C[C@H]1[C@@H](c2ccc(F)c3c2CCC3)[C@H](C(=O)Nc2ccnc(P(C)(C)=O)c2)S[C@@]1(C)C(F)(F)F [Compound 68-b] | < 1 nM
COc1c([C@@H]2C[C@](C)(C(F)(F)F)S[C@H]2C(=O)Nc2ccc(F)c(S(N)(=O)=O)c2)ccc(F)c1F [Compound 72-a] | < 0.1 nM
COc1c([C@@H]2C[C@](C)(C(F)(F)F)S[C@H]2C(=O)Nc2ccnc(P(C)(C)=O)c2)ccc(F)c1F [Compound 74-a] | < 1 nM
COc1c(C2C(C(=O)Nc3ccnc(S(N)(=O)=O)c3)SC(C)(C(F)(F)F)C2C)ccc(F)c1F (stereo not shown) [Mixture of compounds 5-3a and 5-3b] | < 1 nM
COc1c(C2C(C(=O)Nc3ccc(CO)nc3)SC(C)(C(F)(F)F)C2C)ccc(F)c1F (stereo not shown) [Mixture of compounds 18-2a and 18-2b] | < 1 nM
COc1c(C2C(C(=O)Nc3cnc(CO)nc3)SC(C)(C(F)(F)F)C2C)ccc(F)c1F (stereo not shown) [Mixture of compounds 19-2a and 19-2b] | < 1 nM
COc1c(C2C(C(=O)Nc3ccnc(S(C)(=O)=O)c3)SC(C)(C(F)(F)F)C2C)ccc(F)c1F (stereo not shown) [Mixture of compounds 25-1a and 25-1b] | < 0.1 nM
COc1c(C2C(C(=O)Nc3ccc(F)c(S(C)(=O)=O)c3)SC(C)(C(F)(F)F)C2C)ccc(F)c1F (stereo not shown) [Mixture of compounds 26-1a and 26-1b] | < 1 nM
COc1c([C@H]2[C@H](C(=O)Nc3cccc(C(N)=O)c3)S[C@@](C)(C(F)(F)F)[C@H]2C)ccc(F)c1F [Mixture of compounds 28-2a and 28-2b] | < 0.1 nM
COc1cc(F)ccc1C1C(C(=O)Nc2ccnc(C(N)=O)c2)SC(C)(C(F)(F)F)C1C (stereo not shown) [Mixture of compounds 34-1a and 34-1b] | < 1 nM
[2H]C([2H])([2H])Oc1c([C@H]2[C@H](C(=O)Nc3ccnc(C(N)=O)c3)S[C@@](C)(C(F)(F)F)[C@H]2C)ccc(F)c1F [Mixture of compounds 35-8a and 35-8b] | < 0.1 nM
COc1c(C2C(C(=O)Nc3cc[nH]c(=O)c3)SC(C)(C(F)(F)F)C2C)ccc(F)c1F (stereo not shown) [Mixture of compounds 36-2a and 36-2b] | < 0.1 nM
CC1C(c2ccc(F)c3c2CCC3)C(C(=O)Nc2cccc(C(N)=O)c2)SC1(C)C(F)(F)F (stereo not shown) [Mixture of compounds 37-1a and 37-1b] | < 1 nM
C[C@H]1[C@@H](c2ccc(F)c3c2OCC3(C)C)[C@H](C(=O)Nc2ccnc(C(N)=O)c2)S[C@@]1(C)C(F)(F)F [Mixture of compounds 76-8a and 76-8b] | < 1 nM
COc1c([C@H]2[C@H](C(=O)Nc3ccnc(P(C)(C)=O)c3)S[C@@](C)(C(F)(F)F)[C@H]2C)ccc(F)c1F [Trifluoroacetate of compound 58] | < 1 nM
